According to patent US20230293519A1, “INTEGRIN INHIBITORS AND USES THEREOF IN COMBINATION WITH OTHER AGENTS” (Pliant Therapeutics, Inc., priority 2021, published 2023):

molecular target: recombinant human integrin αvβ6 (Homo sapiens (Human), UniProt P06756+P18564); test: Solid phase integrin αvβ6 binding assay; conditions: IC50 presented in four ranges; read-out: αvβ6 Inhibition IC50 (nM) - range
Experimental: (§1) Microplates were coated with recombinant human integrin αvβ6 (2 µg/mL) in PBS (100 µL/well 25° C., overnight). The coating solution was removed, washed with wash buffer (0.05% Tween 20; 0.5 mM MnCl2; in 1x TBS). The plate was blocked with 200 µL/well of Block Buffer (1% BSA; 5% sucrose; 0.5 mM MnCl2; in 1x TBS) at 37° C. for 2 h. Dilutions of testing compounds and recombinant TGFβ1 LAP (0.67 µg/mL) in binding buffer (0.05% BSA; 2.5% sucrose; 0.5 mM MnCl2; in 1x TBS) were added. The plate was incubated for 2 hours at 25° C., washed, and incubated for 1 hour with Biotin-Anti-hLAP. Bound antibody was detected by peroxidase-conjugated streptavidin. The IC50 values for testing compounds were calculated by a four-parameter logistic regression.
The compounds tested were compound samples prepared according to procedures described in the Synthetic Examples section, with the stereochemical purity as indicated in the Examples.
as §1, with “A third series of exemplary compounds was selected for testing in the solid phase integrin αvβ6 binding assay. The compounds tested were compound samples prepared according to procedures described in the Synthetic Examples section, with the stereochemical purity as indicated in the Examples. As in Example B1, microplates” for “Microplates”

Chain of recombinant human integrin αvβ6 (P06756 31-889): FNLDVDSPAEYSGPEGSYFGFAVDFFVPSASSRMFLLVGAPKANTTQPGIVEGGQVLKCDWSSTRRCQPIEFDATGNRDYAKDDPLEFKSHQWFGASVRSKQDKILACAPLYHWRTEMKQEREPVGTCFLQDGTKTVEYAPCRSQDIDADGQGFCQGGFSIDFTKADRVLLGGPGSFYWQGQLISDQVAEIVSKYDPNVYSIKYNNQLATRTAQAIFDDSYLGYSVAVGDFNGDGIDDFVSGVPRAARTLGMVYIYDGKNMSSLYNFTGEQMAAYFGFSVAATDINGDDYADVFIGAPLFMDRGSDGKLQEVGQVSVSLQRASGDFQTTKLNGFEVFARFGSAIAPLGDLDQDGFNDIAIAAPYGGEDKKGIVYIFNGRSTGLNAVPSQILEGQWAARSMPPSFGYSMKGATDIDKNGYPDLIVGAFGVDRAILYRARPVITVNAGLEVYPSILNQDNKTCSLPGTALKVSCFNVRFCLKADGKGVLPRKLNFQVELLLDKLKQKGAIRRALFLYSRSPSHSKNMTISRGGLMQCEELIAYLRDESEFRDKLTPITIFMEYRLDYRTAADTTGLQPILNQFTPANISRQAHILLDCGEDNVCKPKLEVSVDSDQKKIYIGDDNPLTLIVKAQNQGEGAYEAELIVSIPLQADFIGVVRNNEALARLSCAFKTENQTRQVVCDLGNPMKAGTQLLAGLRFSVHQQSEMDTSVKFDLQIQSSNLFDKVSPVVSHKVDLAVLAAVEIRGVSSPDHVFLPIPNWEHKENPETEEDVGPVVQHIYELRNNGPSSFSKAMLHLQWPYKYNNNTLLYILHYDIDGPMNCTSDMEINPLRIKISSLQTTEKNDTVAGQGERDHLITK
Chain of recombinant human integrin αvβ6 (P06756 890-992 partner): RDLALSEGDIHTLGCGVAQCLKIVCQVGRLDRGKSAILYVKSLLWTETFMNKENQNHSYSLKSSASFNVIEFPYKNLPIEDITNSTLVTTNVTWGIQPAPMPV
Chain of recombinant human integrin αvβ6 (P18564 22-707): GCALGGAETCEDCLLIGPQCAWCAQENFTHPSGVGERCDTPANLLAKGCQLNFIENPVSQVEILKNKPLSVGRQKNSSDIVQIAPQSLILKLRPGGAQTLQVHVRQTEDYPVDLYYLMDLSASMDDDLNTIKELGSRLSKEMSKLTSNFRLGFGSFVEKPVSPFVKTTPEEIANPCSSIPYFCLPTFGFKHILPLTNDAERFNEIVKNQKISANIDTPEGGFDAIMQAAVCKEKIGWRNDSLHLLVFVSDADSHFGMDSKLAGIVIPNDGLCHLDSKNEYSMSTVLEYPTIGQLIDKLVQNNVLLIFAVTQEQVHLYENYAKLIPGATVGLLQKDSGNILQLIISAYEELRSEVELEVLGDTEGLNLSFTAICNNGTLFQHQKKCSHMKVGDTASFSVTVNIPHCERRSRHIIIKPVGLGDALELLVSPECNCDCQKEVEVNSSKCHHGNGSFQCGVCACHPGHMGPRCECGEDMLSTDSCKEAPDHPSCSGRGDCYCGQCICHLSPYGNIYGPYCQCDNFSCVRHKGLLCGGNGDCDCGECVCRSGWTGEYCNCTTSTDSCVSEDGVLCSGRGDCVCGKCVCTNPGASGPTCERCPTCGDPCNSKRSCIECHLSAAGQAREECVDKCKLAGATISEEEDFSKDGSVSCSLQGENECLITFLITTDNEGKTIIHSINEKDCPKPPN

Structure (SMILES)	IC50 [nM]
O=C(O)[C@H](CCN(CCCCc1ccc2c(n1)NCCC2)CCC(F)F)Nc1ncc(C(F)(F)F)cn1 [compound 132]	50 to 250
O=C(O)[C@H](CCN(CCCCc1ccc2c(n1)NCCC2)CCC(F)F)Nc1ccnc(C(F)(F)F)n1 [compound 134]	50 to 250
CO[C@H](C)CN(CCCCc1ccc2c(n1)NCCC2)CC[C@H](Nc1ccnc(-c2ccccc2)n1)C(=O)O [compound 73]	< 50
O=C(O)[C@H](CCN(CCCCc1ccc2c(n1)NCCC2)CC(F)F)Nc1ncc(C(F)(F)F)cn1 [compound 95]	> 1000
COc1cccc2c(N[C@@H](CCN(CCCF)CCCCc3ccc4c(n3)NCCC4)C(=O)O)ncnc12 [compound 43]	< 50
COC[C@@H](F)CN(CCCCc1ccc2c(n1)NCCC2)CC[C@H](Nc1ncncc1-c1ccccc1)C(=O)O [compound 110]	< 50
COCCN(CCCCc1ccc2c(n1)NCCC2)CC[C@H](Nc1ccnc2ccccc12)C(=O)O [compound 36]	> 1000
O=C(O)[C@H](CCN(CCCCc1ccc2c(n1)NCCC2)C1CC1)Nc1ncnc2ccccc12 [compound 6]	50 to 250
CO[C@H](C)CN(CCCCc1ccc2c(n1)NCCC2)CC[C@H](Nc1cc(-n2cccn2)ncn1)C(=O)O [compound 77]	< 50
CO[C@H](C)CN(CCCCc1ccc2c(n1)NCCC2)CC[C@H](Nc1ccnc(C(F)(F)F)n1)C(=O)O [compound 87]	250 to 1000
CO[C@H](C)CN(CCCCc1ccc2c(n1)NCCC2)CC[C@H](Nc1nc(-c2cccnc2)nc2ccccc12)C(=O)O [compound 100]	< 50
O=C(O)[C@H](CCN(CCCCc1ccc2c(n1)NCCC2)CCOc1ccccn1)Nc1ncnc2c(Cl)cccc12 [compound 48]	< 50
N#Cc1cnc(N[C@@H](CCN(CCCCc2ccc3c(n2)NCCC3)CCOc2ccccc2)C(=O)O)nc1 [compound 111]	< 50
CS(=O)(=O)CCN(CCCCc1ccc2c(n1)NCCC2)CC[C@H](Nc1ncc(C(F)(F)F)cn1)C(=O)O [compound 102]	> 1000
Cc1ncccc1OCCN(CCCCc1ccc2c(n1)NCCC2)CC[C@H](Nc1ncnc2cccnc12)C(=O)O [compound 54]	< 50
O=C(O)[C@H](CCN(CCCCc1ccc2c(n1)NCCC2)CCOc1cncc(F)c1)Nc1ncnc2ccccc12 [compound 58]	< 50
CS(=O)(=O)CCN(CCCCc1ccc2c(n1)NCCC2)CC[C@H](Nc1cc(-n2cccn2)ncn1)C(=O)O [compound 126]	> 1000
Cn1ncc2c(N[C@@H](CCN(CCCCc3ccc4c(n3)NCCC4)CCC(F)F)C(=O)O)ncnc21 [compound 133]	50 to 250
O=C(O)[C@H](CCN(CCCCc1ccc2c(n1)NCCC2)CC(F)F)Nc1ncc(C2CC2)cn1 [compound 146]	> 1000
CN(C)C(=O)CN(CCCCc1ccc2c(n1)NCCC2)CC[C@H](Nc1ccnc(C(F)(F)F)n1)C(=O)O [compound 145]	< 50

Structure (SMILES)	IC50 [nM]
COC[C@@H](F)CN(CCCCc1ccc2c(n1)NCCC2)CC[C@H](Nc1ncnc2c1cnn2C)C(=O)O [compound 105]	< 50
CO[C@H](C)CN(CCCCc1ccc2c(n1)NCCC2)CC[C@H](Nc1ncc(C2CC2)cn1)C(=O)O [compound 124]	< 50
COCCN(CCCCc1ccc2c(n1)NCCC2)CC[C@H](Nc1nc(C)nc2ccccc12)C(=O)O [compound 10]	< 50
O=C(O)[C@H](CCN(CCCCc1ccc2c(n1)NCCC2)CCOc1ccccc1)Nc1ncc(C2CC2)cn1 [compound 117]	< 50
CO[C@H](C)CN(CCCCc1ccc2c(n1)NCCC2)CC[C@H](Nc1ncc(C(F)(F)F)cn1)C(=O)O [compound 85]	250 to 1000
COCCN(CCCCc1ccc2c(n1)NCCC2)CC[C@H](Nc1ncnc2cccc(F)c12)C(=O)O [compound 18]	< 50
O=C(O)[C@H](CCN(CCCCc1ccc2c(n1)NCCC2)CC(F)F)Nc1ccnc(C(F)(F)F)n1 [compound 97]	> 1000
Cc1cc(C)n(CCN(CCCCc2ccc3c(n2)NCCC3)CC[C@H](Nc2ncnc3ccccc23)C(=O)O)n1 [compound 45]	< 50
COC[C@@H](F)CN(CCCCc1ccc2c(n1)NCCC2)CC[C@H](Nc1ncnc2ccccc12)C(=O)O [compound 31]	< 50
CN(C)C(=O)CN(CCCCc1ccc2c(n1)NCCC2)CC[C@H](Nc1ncnc2c1cnn2C)C(=O)O [compound 140]	< 50
CO[C@H](C)CN(CCCCc1ccc2c(n1)NCCC2)CC[C@H](Nc1ncnc2cn[nH]c12)C(=O)O [compound 79]	< 50
O=C(O)[C@H](CCN(CCCCc1ccc2c(n1)NCCC2)CCOc1ccccc1)Nc1cc(-n2cccn2)ncn1 [compound 91]	< 50
O=C(O)[C@H](CCN(CCCCc1ccc2c(n1)NCCC2)CC(F)F)Nc1cc(-n2cccn2)ncn1 [compound 98]	> 1000
O=C(O)[C@H](CCN(CCCCc1ccc2c(n1)NCCC2)C1CC(F)(F)C1)Nc1ncnc2ccccc12 [compound 9]	> 1000
Cc1ccc(OCCN(CCCCc2ccc3c(n2)NCCC3)CC[C@H](Nc2ncnc3ccccc23)C(=O)O)cn1 [compound 59]	< 50
CO[C@H](C)CN(CCCCc1ccc2c(n1)NCCC2)CC[C@H](Nc1ccncn1)C(=O)O [compound 127]	250 to 1000
CS(=O)(=O)CCN(CCCCc1ccc2c(n1)NCCC2)CC[C@H](Nc1ncnc2[nH]ncc12)C(=O)O [compound 125]	50 to 250
Cc1nc(N[C@@H](CCN(CCCCc2ccc3c(n2)NCCC3)CC2CC(F)(F)C2)C(=O)O)c2ccc(F)cc2n1 [compound 33]	< 50
COCCN(CCCCc1ccc2c(n1)NCCC2)CC[C@H](Nc1nccnc1C#N)C(=O)O [compound 67]	< 50
O=C(O)[C@H](CCN(CCCCc1ccc2c(n1)NCCC2)CC(CO)CO)Nc1ncnc2ccccc12 [compound 130]	< 50

Structure (SMILES)	IC50 [nM]
O=C(O)[C@H](CCN(CCCCc1ccc2c(n1)NCCC2)CCOc1ccccc1)Nc1nc(-c2cccnc2)nc2ccccc12 [compound 94]	< 50
O=C(O)[C@H](CCN(CCCCc1ccc2c(n1)NCCC2)CC(F)F)Nc1nc(-c2cccnc2)nc2ccccc12 [compound 99]	250 to 1000
COC[C@@H](F)CN(CCCCc1ccc2c(n1)NCCC2)CC[C@H](Nc1nc(C)nc2cc(F)ccc12)C(=O)O [compound 32]	< 50
COCCN(CCCCc1ccc2c(n1)NCCC2)CC[C@H](Nc1ncnc2ccc(F)cc12)C(=O)O [compound 19]	< 50
O=C(O)[C@H](CCN(CCCCc1ccc2c(n1)NCCC2)CCOc1ccc(F)cc1)Nc1ncc(Br)cn1 [compound 144]	50 to 250
CO[C@H](C)CN(CCCCc1ccc2c(n1)NCCC2)CC[C@H](Nc1nc(C)nc2cc(F)ccc12)C(=O)O [compound 65]	< 50
CO[C@H](C)CN(CCCCc1ccc2c(n1)NCCC2)CCC(Nc1ncnc2ccccc12)C(=O)O (stereo partly drawn) [compound 62]	< 50
O=C(O)[C@H](CCN(CCCCc1ccc2c(n1)NCCC2)CCOc1ccccc1)Nc1ncc(C(F)(F)F)cn1 [compound 89]	< 50
O=C(O)[C@H](CCN(CCCCc1ccc2c(n1)NCCC2)CCOc1cc(F)cc(F)c1)Nc1ncnc2ccccc12 [compound 47]	< 50
COC[C@@H](F)CN(CCCCc1ccc2c(n1)NCCC2)CC[C@H](Nc1nc(-c2cccnc2)nc2ccccc12)C(=O)O [compound 109]	< 50
COCCN(CCCCc1ccc2c(n1)NCCC2)CC[C@H](Nc1nc(C(F)(F)F)nc2ccccc12)C(=O)O [compound 14]	< 50
COCCN(CCCCc1ccc2c(n1)NCCC2)CC[C@H](Nc1ncnc2cc(Cl)ccc12)C(=O)O [compound 37]	50 to 250
CS(=O)(=O)CCN(CCCCc1ccc2c(n1)NCCC2)CC[C@H](Nc1ncnc2ccccc12)C(=O)O [compound 27]	< 50
O=C(O)[C@H](CCN(CCCCc1ccc2c(n1)NCCC2)CCOc1cncc(F)c1)Nc1ncnc2cccnc12 [compound 60]	< 50
Cc1ccc2c(N[C@@H](CCN(CCCCc3ccc4c(n3)NCCC4)CCOc3ccc(C)nc3)C(=O)O)nc(C)nc2c1 [compound 56]	< 50
COCCN(CCCCc1ccc2c(n1)NCCC2)CC[C@H](Nc1nc(C)nc2cc(F)ccc12)C(=O)O [compound 12]	< 50
Cn1ncc2c(N[C@@H](CCN(CCCF)CCCCc3ccc4c(n3)NCCC4)C(=O)O)ncnc21 [compound 136]	< 50
CO[C@H](C)CN(CCCCc1ccc2c(n1)NCCC2)CC[C@H](Nc1nccnc1C#N)C(=O)O [compound 76]	< 50
Cn1ncc2c(N[C@@H](CCN(CCCCc3ccc4c(n3)NCCC4)CCS(C)(=O)=O)C(=O)O)ncnc21 [compound 101]	50 to 250
O=C(O)[C@H](CCN(CCCCc1ccc2c(n1)NCCC2)CC(F)F)Nc1cc(-c2ccccc2)ncn1 [compound 142]	> 1000
